Test results as given in US10617706B2, “Compounds for cancer chemotherapeutic sensitization” (Regents of the University of Minnesota, priority 2018, dated 2020).

tested on: DT40 lymphoma cells; experiment: not given; details: in cancer cells, at 50 μM of compound 5-I; sensitizing effect; cited from earlier work

For N#Cc1ccc2cc3c(=O)[nH]c(=O)nc-3n(-c3cccc(-c4nnn[nH]4)c3)c2c1 [compound 5-I], the “maximal efficacy, cell viability” value is given as “around 10%”.

target: hTdp2 (Rec) (Homo sapiens (Human), UniProt O95551); experiment: SUMO hTDP2cat fluorescence-based biochemical assay; details: not given
Method: Biochemical Potency. The enzymatic activity of TDP2 was measured with a SUMO hTDP2cat fluorescence-based biochemical assay. […] After a pre-incubation period of 10 minutes, 5 μL of substrate 5′-(6-FAM-NHS)(5′-tyrosine)GATCT(3′-BHQ-1)-3′ (1 μM, final concentration of 0.25 μM) was added, and the reaction was allowed to proceed at 25° C. for 60 minutes. The fluorescence was measured, and the data was processed as described previously for 14M_zTDP2.

hTdp2 (Rec), sequence (O95551 113-362): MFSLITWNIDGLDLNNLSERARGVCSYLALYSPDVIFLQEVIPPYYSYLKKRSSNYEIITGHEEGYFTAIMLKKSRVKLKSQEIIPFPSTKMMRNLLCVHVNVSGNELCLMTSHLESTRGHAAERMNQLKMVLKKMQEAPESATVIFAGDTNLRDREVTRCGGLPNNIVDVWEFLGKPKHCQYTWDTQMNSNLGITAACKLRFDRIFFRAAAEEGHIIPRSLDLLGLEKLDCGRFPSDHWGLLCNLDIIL

N#Cc1ccc2cc3c(=O)n(-c4cccc(NP(=O)(Oc5ccccc5)Oc5ccccc5)c4)c(=O)nc-3n(-c3ccc(O)cc3)c2c1 [Example 134, Diphenyl-(3-(8-cyano-10-(4-hydroxyphenyl)-2,4-dioxo-4,10-dihydropyrimido[4,5-b]quinolin-3(2H)-yl)phenyl)phosphoramidate] and N#Cc1ccc2cc3c(=O)n(-c4ccc(NP(=O)(Oc5ccccc5)Oc5ccccc5)cc4)c(=O)nc-3n(-c3ccc(O)cc3)c2c1 [Example 135, Diphenyl-(4-(8-cyano-10-(4-hydroxyphenyl)-2,4-dioxo-4,10-dihydropyrimido[4,5-b]quinolin-3(2H)-yl)phenyl)phosphoramidate] are within 1.5-fold of each other in IC50: 0.277 ± 0.011 µM for the first, 0.185 ± 0.009 µM for the second.

Going from N#Cc1ccc2cc3c(=O)n(-c4ccc(NC(=O)Oc5ccccc5)cc4)c(=O)nc-3n(-c3ccc(O)cc3)c2c1 [Example 133, Phenyl-(4-(8-cyano-10-(4-hydroxyphenyl)-2,4-dioxo-4,10-dihydropyrimido[4,5-b]quinolin-3(2H)-yl)phenyl)carbamate] to N#Cc1ccc2cc3c(=O)n(-c4cccc(NC(=O)Oc5ccccc5)c4)c(=O)nc-3n(-c3ccc(O)cc3)c2c1 [Example 132, Phenyl-(3-(8-cyano-10-(4-hydroxyphenyl)-2,4-dioxo-4,10-dihydropyrimido[4,5-b]quinolin-3(2H)-yl)phenyl)carbamate], the IC50 rises from 0.059 ± 0.004 µM to 0.119 ± 0.004 µM (2-fold). The first is the more potent here.

First: N#Cc1ccc2cc3c(=O)n(-c4ccc(CNP(=O)(Oc5ccccc5)Oc5ccccc5)cc4)c(=O)nc-3n(-c3ccc(O)cc3)c2c1 [Example 136, Diphenyl-(4-(8-cyano-10-(4-hydroxyphenyl)-2,4-dioxo-4,10-dihydropyrimido[4,5-b]quinolin-3(2H)-yl)benzyl)phosphoramidate]
Second: N#Cc1ccc2cc3c(=O)[nH]c(=O)nc-3n(-c3ccc(Oc4ccc(NC(=O)Oc5ccccc5)cc4)cc3)c2c1 [Example 118]
The IC50 of the first is 6.7-fold lower: 0.119 ± 0.003 µM for the first, 0.795 ± 0.04 µM for the second. The first is the more potent here.

same assay, conditions: SUMO hTDP2cat 3.13 pM, substrate 0.25 μM, 25° C., 60 minutes; read-out: hTdp2 (Rec) IC50

First: CC1(C)OB(c2cccc(COc3ccc(-n4c5nc(=O)[nH]c(=O)c-5cc5ccc(C#N)cc54)cc3)c2)OC1(C)C [Example 121, 2,4-Dioxo-10-(4-((3-(4,4,5,5-tetramethyl-1,3,2-dioxaborolan-2-yl)benzyl)oxy)phenyl)-2,3,4,10-tetrahydropyrimido[4,5-b]quinoline-8-carbonitrile]
Second: CC1(C)OB(c2ccc(COc3ccc(-n4c5nc(=O)[nH]c(=O)c-5cc5ccc(C#N)cc54)cc3)cc2)OC1(C)C [Example 122, 2,4-Dioxo-10-(4-((4-(4,4,5,5-tetramethyl-1,3,2-dioxaborolan-2-yl)benzyl)oxy)phenyl)-2,3,41,10-tetrahydropyrimido[4,5-b]quinoline-8-carbonitrile]
The IC50 of the first is 7.6-fold lower: 0.047 ± 0.004 µM for the first, 0.359 ± 0.032 µM for the second.

Going from CC1(C)OB(c2cccc(Oc3ccc(-n4c5nc(=O)[nH]c(=O)c-5cc5ccc(C#N)cc54)cc3)c2)OC1(C)C [Example 119, 2,4-Dioxo-10-(4-(3-(4,4,5,5-tetramethyl-1,3,2-dioxaborolan-2-yl)phenoxy)phenyl)-2,3,4,10-tetrahydropyrimido[4,5-b]quinoline-8-carbonitrile] to N#Cc1ccc2cc3c(=O)[nH]c(=O)nc-3n(-c3ccc(Oc4cccc(B(O)O)c4)cc3)c2c1 [Example 120, (3-(4-(8-Cyano-2,4-dioxo-3,4-dihydropyrimido[4,5-b]quinolin-10(2H)-yl)phenoxy)phenyl) boronic acid], the IC50 falls from 0.00828 ± 0.00044 µM to 0.00501 ± 0.00069 µM (1.7-fold). The second is the more potent here.

Going from N#Cc1ccc2cc3c(=O)[nH]c(=O)nc-3n(-c3ccc(OCc4ccc(B(O)O)cc4)cc3)c2c1 [Example 124, (4-((4-(8-Cyano-2,4-dioxo-3,4-dihydropyrimido [4,5-b]quinolin-10(2H)-yl)phenoxy)methyl)phenyl) boronic acid] to N#Cc1ccc2cc3c(=O)[nH]c(=O)nc-3n(-c3ccc(OCc4cccc(B(O)O)c4)cc3)c2c1 [Example 123, (3-((4-(8-Cyano-2,4-dioxo-3,4-dihydropyrimido [4,5-b]quinolin-10(2H)-yl)phenoxy)methyl)phenyl) boronic acid], the IC50 falls from 0.239 ± 0.018 µM to 0.039 ± 0.003 µM (6.1-fold). The second is the more potent here.

For O=c1nc2n(-c3ccc(Oc4cccc(B(O)O)c4)cc3)c3cc(Cl)ccc3cc-2c(=O)[nH]1 [Example 143, (3-(4-(8-Chloro-2,4-dioxo-3,4-dihydropyrimido[4,5-b]quinolin-10(2H)yl)phenoxy)phenyl) boronic acid], the IC50 was 0.00385 ± 0.00037 µM.
